# From the supplement of paper PMC10307832
# What was measured:
# Test in all cases: relative viability (nuclei count vs DMSO), 5 days (fraction); higher = more cells survive
# GW-2580 + Navitoclax = compound: COC1=CC=C(C=C1)COC2=C(C=C(C=C2)CC3=CN=C(N=C3N)N)OC [GW-2580] + CC1(C)CCC(c2ccc(Cl)cc2)=C(CN2CCN(c3ccc(C(=O)NS(=O)(=O)c4ccc(N[C@H](CCN5CCOCC5)CSc5ccccc5)c(S(=O)(=O)C(F)(F)F)c4)cc3)CC2)C1 [Navitoclax] (partner 0.5 µM)
# In short: (§1)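 Cells from lung cancer lines were seeded into 1536-well plates and, one day later, dosed by pin tool. Treatments were either a single drug or a fixed dose of an anchor drug with five library-drug doses (not always all listed) in √10 steps. After 5 days, nuclei were stained in a one-step fixation (final 0.05% Triton X-100, 1% formaldehyde, 1 ug/ml Hoechst) and counted on 4× images, and relative viability is the treated-to-vehicle nuclei ratio, as the median of duplicate plates.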
# GW-2580 + OSI-027 = compound: COC1=CC=C(C=C1)COC2=C(C=C(C=C2)CC3=CN=C(N=C3N)N)OC [GW-2580] + COc1cccc2cc(-c3nc([C@H]4CC[C@H](C(=O)O)CC4)n4ncnc(N)c34)[nH]c12 [OSI-027] (partner 0.5 µM)
# In short: as §1
# Fedratinib + Navitoclax = compound: Cc1cnc(Nc2ccc(OCCN3CCCC3)cc2)nc1Nc1cccc(S(=O)(=O)NC(C)(C)C)c1 [Fedratinib] + CC1(C)CCC(c2ccc(Cl)cc2)=C(CN2CCN(c3ccc(C(=O)NS(=O)(=O)c4ccc(N[C@H](CCN5CCOCC5)CSc5ccccc5)c(S(=O)(=O)C(F)(F)F)c4)cc3)CC2)C1 [Navitoclax] (partner 0.5 µM)
# In short: as §1
# Fedratinib + Foretinib = compound: Cc1cnc(Nc2ccc(OCCN3CCCC3)cc2)nc1Nc1cccc(S(=O)(=O)NC(C)(C)C)c1 [Fedratinib] + COc1cc2c(Oc3ccc(NC(=O)C4(C(=O)Nc5ccc(F)cc5)CC4)cc3F)ccnc2cc1OCCCN1CCOCC1 [Foretinib] (partner 0.25 µM)
# In short: as §1
# Fedratinib + Lapatinib = compound: Cc1cnc(Nc2ccc(OCCN3CCCC3)cc2)nc1Nc1cccc(S(=O)(=O)NC(C)(C)C)c1 [Fedratinib] + CS(=O)(=O)CCNCc1ccc(-c2ccc3ncnc(Nc4ccc(OCc5cccc(F)c5)c(Cl)c4)c3c2)o1 [Lapatinib] (partner 2 µM)
# In short: as §1
cell line,measurement,setting,value
UMC-11,relative viability,GW-2580 + Navitoclax; first compound 0.08 µM,0.309
same,relative viability,GW-2580 + Navitoclax; first compound 0.8 µM,0.342
same,relative viability,GW-2580 + Navitoclax; first compound 2.53 µM,0.291
same,relative viability,GW-2580 + Navitoclax; first compound 8 µM,0.324
same,relative viability,GW-2580 + OSI-027; first compound 0.08 µM,0.531
same,relative viability,GW-2580 + OSI-027; first compound 0.8 µM,0.508
same,relative viability,GW-2580 + OSI-027; first compound 2.53 µM,0.515
same,relative viability,GW-2580 + OSI-027; first compound 8 µM,0.439
same,relative viability,Fedratinib + Navitoclax; first compound 0.1 µM,0.31
same,relative viability,Fedratinib + Navitoclax; first compound 0.3162 µM,0.275
same,relative viability,Fedratinib + Navitoclax; first compound 1 µM,0.228
same,relative viability,Fedratinib + Foretinib; first compound 0.1 µM,1.1
same,relative viability,Fedratinib + Foretinib; first compound 0.3162 µM,0.958
same,relative viability,Fedratinib + Foretinib; first compound 1 µM,0.706
same,relative viability,Fedratinib + Lapatinib; first compound 0.1 µM,0.825
same,relative viability,Fedratinib + Lapatinib; first compound 0.3162 µM,1.08
same,relative viability,Fedratinib + Lapatinib; first compound 1 µM,0.284
